Data reported in article PMC4170738 (RSC advances, 2014).

How the values were obtained:
[1] = system: control strain SME3359 (lacZ reporter under synthetic promoter repressed by LacI); experiment: Control strain dose-response assay; assay type: cell-based, E. coli; conditions: for IC50: Escherichia coli, 3 h, read-out: Control strain IC50; for Control strain IC50: E. coli strain SME3359, 1 mM IPTG, 3 hours at 37°C, 6.2% DMSO
[2] = Stability towards thiol nucleophile glutathione; assay type: physicochemical; conditions: 10 µM in PBS pH 7.4 (1% DMSO), 50 µM GSH, room temperature, up to 48 hours
[3] = target: T1, VirF (Shigella flexneri, UniProt P0A2T1); experiment: cell-based; assay type: cell-based; conditions: for VirF IC50: E. coli strain SME4382, virB-lacZ fusion, 1 mM IPTG, 3 hours at 37°C, 6.2% DMSO
[4] = system: E. coli strains SME4382 and SME3359; experiment: E. coli growth experiments; assay type: cell-based; conditions: VirF and control strains, TY broth, 44 µM compound, 6.2% DMSO, 37°C
[5] = system: VirF-dependent virulence genes (icsS, icsB, ipaB, virB); conditions: virB in S. flexneri; cited from earlier work
[6] = target: T1, VirF; conditions: purified VirF, in vitro; cited from earlier work
[7] = Aqueous stability in PBS pH 7.4 by RP HPLC/UV/HRMS; assay type: physicochemical; conditions: 10 µM in PBS pH 7.4 (1% DMSO), room temperature; by the 0th time point, about 30 minutes elapsed
[8] = target: T1, VirF; conditions: cell-based reporter gene assays with S. flexneri and E. coli; cited from earlier work

T1 sequence (P0A2T1 whole entry, the tested form may be a part): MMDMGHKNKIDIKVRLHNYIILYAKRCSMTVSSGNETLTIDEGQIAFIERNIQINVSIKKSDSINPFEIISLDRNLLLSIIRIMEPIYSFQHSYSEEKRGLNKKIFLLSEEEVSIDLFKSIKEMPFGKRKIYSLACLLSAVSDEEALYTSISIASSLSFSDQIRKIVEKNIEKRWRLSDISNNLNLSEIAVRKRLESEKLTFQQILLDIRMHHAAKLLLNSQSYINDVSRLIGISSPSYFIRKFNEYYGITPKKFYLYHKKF

Compound: CCCCN1C=C(c2cccc(Cl)c2)C(C[N+](=O)[O-])c2ccccc21 (centres unmarked) [Entry 7, 1-butyl-3-(3-chlorophenyl)-4-(nitromethyl)-1,4-dihydroquinoline]
- IC50 [1]: > 100 µM

Compound: 1‧-hexyl-[2,3‧-biquinolin]-1‧-ium bromide [Entry 21]
- Control strain IC50 [1]: not inhibiting the control strain

Compound: Clc1ccc(C[n+]2cc(-c3ccc4ccccc4n3)cc3ccccc32)cc1.[Br-] [Entry 3, 1‧-(4-chlorobenzyl)-[2,3‧-biquinolin]-1‧-ium bromide]
- GSH adduct formation [2]: no GSH adducts were observed

Compound: CC(C)[n+]1cc(-c2ccc3ccccc3n2)cc2ccccc21.[I-] [Entry 19, 1‧-isopropyl-[2,3‧-biquinolin]-1‧-ium iodide]
- Control strain IC50 [1]: not inhibiting the control strain

Compound: 1‧-propyl-[2,3‧-biquinolin]-1‧-ium bromide [Entry 20]
- Control strain IC50 [1]: not inhibiting the control strain

Compound: CCCCn1cc(-c2ccc3ccccc3n2)c2ccccc21 [Entry 12, 2-(1-butyl-1 H-indol-3-yl)quinoline]
- Control strain IC50 [1]: no inhibitory activity
- VirF IC50 [3]: no inhibitory activity

Compound: C=CCCC[n+]1cc(-c2ccc3ccccc3n2)cc2ccccc21.[Br-] [Entry 24, 1‧-(pent-4-en-1-yl)-[2,3‧-biquinolin]-1’-ium bromide]
- Control strain IC50 [1]: not inhibiting the control strain

Compound: CCCCN1C=C(c2cccc(C)n2)C(C[N+](=O)[O-])c2ccccc21 (centres unmarked) [Entry 6, 1-butyl-3-(6-methylpyridin-2-yl)-4-(nitromethyl)-1,4-dihydroquinoline]
- IC50 [1]: > 100 µM
- IC50 [3]: > 100 µM
- Effect on bacterial growth [4]: inhibited the growth of the bacteria

Compound: CCCCN1C=C(c2ccc3ccccc3n2)C(c2ccccc2)c2ccccc21 (centres unmarked) [Entry 8, 1‧-butyl-4‧-phenyl-1‧,4‧-dihydro-2,3‧-biquinoline]
- Control strain IC50 [1]: No inhibition
- VirF IC50 [3]: No inhibition

Compound: CCCC[n+]1cc(-c2ccc3ccccc3c2)cc2ccccc21 [Entry 23, 1-butyl-3-(naphthalen-2-yl)quinolin-1-ium bromide]
- IC50 [1]: > 100 µM
- IC50 [3]: 9 µM

Compound: CCCCCCCCC[N+](CC)(CC)CC.[Br-] [Entry 18, N,N,N-triethylnonan-1-aminium bromide]
- Control strain IC50 [1]: no inhibitory activity
- VirF IC50 [3]: no inhibitory activity

Compound: CCCCN1C=C(c2ccc3ccccc3n2)C(C[N+](=O)[O-])c2ccccc21 (centres unmarked) [SE-1, 1‧-Butyl-4‧-(nitromethyl)-1‧,4’-dihydro-2,3‧-biquinoline]
- Expression of VirF-dependent virulence genes (mRNA) [5]: reduced the expression
- Inhibition of DNA binding by VirF [6]: inhibitor
- Aqueous stability (degradation to the corresponding quaternary salt) [7]: degraded completely
- Inhibition of transcription activation by VirF [8]: inhibitor

Compound: CCCCN1c2ccccc2C=C(c2ccc3ccccc3n2)C1C (centres unmarked) [Entry 10, 1‧-butyl-2‧-methyl-1‧,2‧-dihydro-2,3‧-biquinoline]
- Control strain IC50 [1]: No inhibition
- VirF IC50 [3]: No inhibition

Compound: CCCCCCCCC[n+]1ccccc1.[Br-] [Entry 17, 1-nonylpyridin-1-ium bromide]
- Control strain IC50 [1]: good to modest, non-specific activity
- IC50 [1]: > 50 µM
- IC50 [3]: > 50 µM
- VirF IC50 [3]: good to modest, non-specific activity

Compound: CCCCn1c2ccccc2c(=O)c2ccccc21 [Entry 15, 10-butylacridin-9(10H)-one]
- Control strain IC50 [1]: no inhibitory activity
- VirF IC50 [3]: no inhibitory activity
